Experimental data as given in patent US12577278B2, “KRAS G12V mutant binds to JAK1, inhibitors, pharmaceutical compositions, and methods related thereto” (Emory University, priority 2019, dated 2026).
Where a SMILES comes first, the peptide text is derived from it.

Tests used:
[1] = system: IFN-γ stimulated STAT1 transcription; assay: STAT1 transcription dual-luciferase assay in HEK293T cells; type: cell-based; conditions: JAK1 and KRAS-G12V co-expressed with RasKi, 1 ng/ml IFN-γ 18 hours, FIG. 3A
Method: STAT1 transcriptional activity was tested in HEK293T cells with a dual-luciferase assay. Luciferase activity was measured upon co-expression of JAK1 and KRAS WT, G12V, or G12V with 8-mer. Fold of Control (FOC) with IFN-γ stimulation was calculated comparing to samples without IFN-γ stimulation. Cells were treated with 1 ng/ml IFN-γ for 18 hours after 24 hours of transfection. Dual-luciferase assays were performed, and relative luciferase activity was measured normalized to Renilla luciferase control.

[2] = cell permeability of the peptide; type: cell-based
[3] = system: HLA-A2+ KRAS WT/G12V cancer cells; assay: anti-NY-ESO-1 CD8+ T cell-mediated killing, CellTiter Blue viability; type: cell-based; conditions: under T-cell stimulation; FIG. 5A-5F
Method: The lentivirus-transduced HLA-A2+ parental KRAS WT cells, SW48-A2+ and their KRAS G12V knock-in isogenic cells were co-cultured with anti-NY-ESO-1 CD8+ T cells, or treated with RasKi, RasKi-K606E, or in combinations as indicated. The cell viability after treatment was measured using CellTiter Blue™ reagent. The growth inhibition was normalized to the untreated control.
The lentivirus-transduced HLA-A2+ patient derived KRAS WT colon cancer cells (SW48-A2+, LIM1215-A2+ and Caco-2-A2+) and KRASG12V colon cancer cells (SW403-A2+, SW480-A2+ and SW620-A2+) were co-cultured with anti-NY-ESO-1 CD8+ T cells, or treated with RasKi, RasKi-K606E, or in combinations as indicated. The cell viability after treatment was measured using CellTiter Blue™ reagent. The growth inhibition was normalized to the untreated control.
The G12V isogenic cells (SW48G12V-A2+, LIM1215G12V-A2+ and H838G12V-A2+) and were co-cultured with anti-NY-ESO-1 CD8+ T cells and treated with RasKi, or in addition with JAK inhibitor (JAKi) or IFNγ receptor antagonist (IFNγRa) as indicated. The cell viability after treatment was measured using CellTiter Blue™ reagent. The growth inhibition was normalized to the untreated control. Each dot represents an individual cell line.
A gene-engineered CD8+ T cell was produced to specifically target an antigen expressed in an HLA-class I-restricted manner. […]

JAK-STAT pathway [4] = assay: Western blot of JAK-STAT pathway signaling in HEK293T cells; type: cell-based; conditions: HEK293T with KRAS-G12V, FIG. 3B
Method: Western Blot was performed to detect the JAK-STAT pathway signaling change in HEK293T cells with overexpressed JAK1 along with KRAS-WT, G12V, or G12V with 8-mer, with or without IFN-γ stimulation (1 ng/ml, 30 minutes). FOC bar graphs show the levels of phosphorylated STAT1 and STAT3 phosphorylation, and the expression of IRF1 and TAP1 after IFN-γ stimulation in comparison to that without stimulation.

[5] = molecular target: T1, KRAS-G12V-JAK1 interaction (Homo sapiens, UniProt P01116, G12V); assay: GST-affinity pull-down assay under endogenous conditions; type: binding; parameters: endogenous in cells; conditions: FIG. 2F
JAK-STAT pathway [6] = assay: IFN-γ stimulated signaling under endogenous conditions in SW48 KRAS isogenic cell lines (luciferase, Western blot, RT-qPCR); type: cell-based; conditions: SW48 G12V cells, IFN-γ 1 ng/ml 18 hours, FIG. 3E
Method: FOC (Fold of control) of STAT1 transcriptional activity was calculated in SW48 (KRAS isogenic colon cancer) WT and G12V cell lines with IFN-γ stimulation comparing to that without IFN-γ stimulation. RasKi was transduced into G12V cells by lentivirus. Cells were treated with IFN-γ (1 ng/ml) for 18 hours after 24 hours of transduction. Dual-luciferase assays were performed, and relative luciferase activity was measured, normalized to Renilla luciferase control.
Western Blot was performed to detect changes in the JAK-STAT pathway in SW48 cell lines (KRAS isogenic colon cancer with G12V), with or without IFN-γ (1 ng/ml) for 30 minutes. FOC bar graphs show STAT1/3 phosphorylation, IRF1 and TAP1 expression in three groups after IFN-γ stimulation comparing to basal level.
Expression of TAP1, IRF1, PD-L1 mRNA was normalized to GAPDH in SW48 cell lines as detected using RT-qPCR (reverse transcription-quantitative polymerase chain reaction). Cells were treated with IFN-γ (1 ng/ml) for 18 hours.

[7] = system: KRAS isogenic cell lines SW48, LIM1215, H838; assay: IFNγ-induced cell death in KRAS-WT and G12V isogenic cells; type: cell-based; conditions: FIG. 4A; for cell killing without IFNγ: no IFNγ
From the text: Bar graphs show the cell death of three pairs of KRAS isogenic cell lines SW48, LIM1215, H838 under different treatment conditions.
Bar graphs show cell death in three KRAS isogenic G12V cell lines in response to IFNγ stimulation and 8-mer peptide, with or without treatment with a JAK1 inhibitor or an IFNγ-receptor antagonist.

[8] = molecular target: T1, KRAS-G12V-JAK1 interaction; assay: GST-affinity pull-down assay; type: binding
[9] = system: KRAS isogenic cell lines SW48, LIM1215, H838; assay: NK92 cell-induced death of KRAS-WT and G12V isogenic cells; type: cell-based; conditions: FIG. 4C
From the text: Dose-dependent killing curves of RasKi/8-mer peptide are shown for KRAS WT and G12V isogenic SW48, LIM1215, H838 cell lines with or without NK92 cell stimulation from cell viability readouts.
RasKi dose-dependent cell death curves were established for KRAS isogenic cell lines treated with JAK1 inhibitor or IFNγ-receptor antagonist in response to NK92 cell stimulation. Bar graphs show integrated results from area under curve (AUC) data of each treatment condition.

[10] = molecular target: T1, KRAS-G12V-JAK1 interaction; assay: TR-FRET assay of the KRAS-G12V/JAK1 interaction in HEK293T lysate; type: binding; conditions: FIG. 2B, 2D
Method: TR-FRET titration assay was performed with HEK293T lysate that had been co-transfected with His-KRAS-G12V and Flag-JAK1. TR-FRET signals were recorded upon treatment with the synthetic peptide 8-mer (RasKi) or the 9-mer control (0 to 50 μM).
Cell lysate from HEK293T cells co-expressing GST-KRAS-G12V and Venus-Flag-JAK1 was treated with the synthetic peptide 8-mer WT ([…], SEQ ID NO: 1) or an 8-mer with K606E mutation. A panel of mutations in 8-mer (5 μM) were tested including M603A ([…], SEQ ID NO: 2).

Compound: CSCC[C@H](N)C(=O)N[C@@H](CC(=O)O)C(=O)N[C@@H](Cc1ccc(O)cc1)C(=O)N[C@@H](CCCCN)C(=O)N[C@@H](CC(=O)O)C(=O)N[C@@H](CC(=O)O)C(=O)N[C@@H](CCC(=O)O)C(=O)NCC(=O)O [RasKi] (H-MDYKDDEG-OH; N-terminus and C-terminus assumed)
- STAT1 transcriptional activity upon IFNγ treatment [1]: completely reversed the KRAS-G12V effect
- cell permeability [2]: cell permeable
- T-cell killing in G12V cells [3]: enhanced T-cell killing
- STAT1/3 phosphorylation (JAK-STAT pathway [4]; IFN-γ 1 ng/ml, 30 minutes): increased
- expression of IRF1 and TAP1 proteins (JAK-STAT pathway [4]; IFN-γ stimulation): increased
- disruption of the KRAS-G12V/JAK1 interaction at endogenous level [5]: effectively disrupt the interaction
- expression of mRNAs for IRF1, TAP1, and PD-L1 (JAK-STAT pathway [6]): increased
- cell killing without IFNγ [7]: no difference
- cell killing without IFNγ ([7]; listed as 8-mer): No cell killing effect
- IFNγ-induced killing effect in cells with KRAS-G12V ([7]; with IFNγ, compared to KRAS-WT cells): drastically increased
- competition with JAK1 full length for binding to KRAS-G12V ([8]; GST pull-down, FIG. 2C, 2E): can compete
- binding to KRAS-G12V ([8]; JAK1 truncation mapping): sufficient for KRAS-G12V binding
- killing of cells with WT KRAS together with NK92 cells ([9]; KRAS WT cells, NK92 co-culture): but not cells with WT KRAS
- killing of cancer cells with KRAS-G12V together with NK92 cells ([9]; KRAS-G12V cells, NK92 co-culture): synergized with NK92 cells to induce dose-dependent killing
- viability of cancer cells, peptide per se ([9]; WT or G12V cells, without NK92 cells): had no effect
- disruption of the JAK1/KRAS-G12V interaction [10]: effectively disrupt
